Experimental data as given in patent publication US8143394B2, “Pyrido(3,2-d)pyrimidines useful for treating viral infections” (Gilead Sciences, Inc., priority 2006, dated 2012).

Tests used:
[1] = CC50 assay (CellTiter-Glo) in Huh-7 HCV replicon cells; assay type: cell-based, human; conditions: human, 50% cytostatic concentration
Method: (§1) The anti-HCV activity of the pyrido[3,2-d]pyrimidine derivatives of this invention was tested in a human hepatoma Huh-7 cell line harbouring a HCV replicon. The assay comprised the following steps:
(§2) Step 1: Compound Preparation and Serial Dilution
(§3) • 1. for water soluble pyrido[3,2-d]pyrimidine derivatives, a volume of 500 μL of solution in cell media (DMEM, 10% FBS, P/S, L-Glutamine) was prepared with a concentration being twice the concentration of the starting final serial dilution concentration. A volume of 150 μL of the solution was added to the pre-specified wells in column 1 of a 96-well cell culture plate (PerkinElmer, white plate, cat. #6005181, for EC50 assay; black plate, cat. #6005182 for CC50 assay). The rest of the plate, columns 2-12, was filled with 100 μL of cell media. The plate was then placed on a Precision 2000 Workstation to start the serial dilution. Compounds were diluted three times each step from column 1 to column 10. Column 11 was used as a blank control (no compound added). • 2. for pyrido[3,2-d]pyrimidine derivatives requiring DMSO to dissolve, serial dilution is performed in 50% DMSO in a 384-well plate. A solution containing a compound at 100-fold concentration of the starting final serial dilution concentration was prepared in 50% DMSO and added to the pre-specified wells in column 1 of a polypropylene 384-well plate. The plate was then placed on a Precision 2000 Workstation to start the serial dilution. After the serial dilution, a volume of 2 μL of the solution was transferred from the 384-well plate to a 96-well cell culture plate containing 100 μL of cell media on a Biomek FX Workstation. The DMSO concentration in the final assay condition was 0.5% after cells are added to the plate and the total volume in each well is brought to 200 μL. Step 2: to each well of the serial dilution plate prepared above, 100 μL of cell media containing 6000 suspended Huh-7 HCV replicon cells was added with a Multidrop workstation. The plates were incubated for 3 days at 37° C. with 5% CO2. Step 3: Detection: • a) for the EC50 assay, the media in a 96-well cell culture plate was aspirated with a Biotek EL405 plate-washer. A volume of 200 μL of a solution containing a 1:1 mixture of cell-lysis buffer (Promega, Luciferase Cell Culture Lysis 5X Reagent, cat. #E1531) and luciferase substrate solution (Promega, Luciferase Assay, cat. # E4550) was added to each well of the plate with Multidrop. The plate was incubated for 30 minutes at room temperature before the luminescence signal was measured with a TopCount plate-reader. • b) for the CC50 assay, a volume of 100 μL of pre-mixed CellTiter-Glo (Promega, cat. # G7572) solution is added directly to the cell culture in each well of the plate and the luminescence signal is measured with a TopCount plate-reader after 10 minutes of incubation at room temperature.
(§4) Results in table 13 are expressed by the following data: • the 50% effective concentration (EC50), i.e. the concentration that protects 50% of the cell monolayer from virus-induced cythopathic effect, and • the 50% cytostatic concentration (CC50), i.e. the concentration that results in 50% inhibition of cell growth.

HCV replicon = assay: Anti-HCV replicon assay (EC50, luciferase readout); assay type: cell-based; conditions: Hepatitis C virus, 72 h; human hepatoma Huh-7 cell line harbouring a HCV replicon; 3 days; luciferase; read-out: EC50
Method: as §1, §2, §3, §4

| Compound | CC50 at 3 days [1] [nM] | EC50 (HCV replicon) [nM] |
| --- | --- | --- |
| CCOc1nc(N)nc2ccc(-c3cccc(NS(C)(=O)=O)c3)nc12 [Example 45, N-[3-(2-Amino-4-ethoxy-pyrido[3,2-d]pyrimidin-6-yl)-phenyl]-methanesulfonamide] | > 20000 | < 300 |
| CCOc1nc(N)nc2ccc(-c3cccc(NS(=O)(=O)CC)c3)nc12 [Example 54, Ethanesulfonic acid [3-(2-amino-4-ethoxy-pyrido[3,2-d]pyrimidin-6-yl)-phenyl]-amide] | > 20000 | < 300 |
| CCOc1nc(N)nc2ccc(-c3ccc(NS(=O)(=O)CC)cc3)nc12 [Example 55, ethanesulfonic acid [4-(2-amino-4-ethoxy-pyrido[3,2-d]pyrimidin-6-yl)-phenyl]-amide] | > 20000 | > 1000 |
| COC(=O)Nc1ccc(-c2ccc3nc(N)nc(NCCS(C)(=O)=O)c3n2)cc1 [Example 6, {4-[2-Amino-4-(2-methanesulfonyl-ethylamino)-pyrido[3,2-d]pyrimidin-6-yl]phenyl}-carbamic acid methyl ester] | 10000 to 20000 | 300 to 1000 |
| CCOc1nc(N)nc2ccc(-c3ccc(NC(=O)[C@H](C)N)c(OC)c3)nc12 [Example 38, 2-Amino-N-[4-(2-amino-4-ethoxy-pyrido[3,2-d]pyrimidin-6-yl)-2-methoxy-phenyl]-propionamide] | > 20000 | < 300 |
| CCC(=O)Nc1ccc(-c2ccc3nc(N)nc(N4CCS(=O)(=O)CC4)c3n2)cc1 [Example 12, N-{4-[2-Amino-4-(1,1-dioxo-1λ^6-thiomorpholin-4-yl)-pyrido[3,2-d]pyrimidin-6-yl]-phenyl}-propionamide] | < 10000 | < 300 |
| COCCOc1nc(N)nc2ccc(-c3ccc(C(=O)NC4CC4)cc3)nc12 [Example 20, 4-[2-Amino-4-(2-methoxy-ethoxy)-pyrido[3,2-d]pyrimidin-6-yl]-N-cyclopropyl-benzamide] | > 20000 | < 300 |
| CC(C)Oc1nc(N)nc2ccc(-c3ccc(C(=O)NC4CCCC4)cc3)nc12 [Example 68, 4-(2-Amino-4-isopropoxy-pyrido[3,2-d]pyrimidin-6-yl)-N-cyclopentyl-benzamide] | > 20000 | 300 to 1000 |
| CCOc1nc(N)nc2ccc(-c3ccc(NC(=O)[C@H](C)N)c(F)c3)nc12 [Example 34, 2-Amino-N-[4-(2-amino-4-ethoxy-pyrido[3,2-d]pyrimidin-6-yl)-2-fluoro-phenyl]-propanamide] | > 20000 | < 300 |
| CS(=O)(=O)Nc1cccc(-c2ccc3nc(N)nc(O[C@@H]4CCOC4)c3n2)c1 [Example 26, N-{3-[2-Amino-4-(tetrahydro-furan-3-yloxy)-pyrido[3,2-d]pyrimidin-6-yl]-phenyl}-methanesulfonamide] | > 20000 | < 300 |
| CCOc1nc(N)nc2ccc(-c3cccc(NS(=O)(=O)C4CC4)c3)nc12 [Example 53, Cyclopropanesulfonic acid[3-(2-amino-4-ethoxy-pyrido[3,2-d]pyrimidin-6-yl)-phenyl]-amide] | > 20000 | < 300 |
| CC(C)(CN1CCOCC1)NC(=O)c1ccc(-c2ccc3nc(N)nc(O[C@H]4CCOC4)c3n2)cc1 [Example 81, 4-[2-Amino-4-(tetrahydro-furan-3-yloxy)-pyrido[3,2-d]pyrimidin-6-yl]-N-(1,1-dimethyl-2-morpholin-4-yl-ethyl)-benzamide] | > 20000 | < 300 |
| CC(C)Oc1nc(N)nc2ccc(-c3ccc(NC(=O)C(C)C)cc3)nc12 [Example 29, N-[4-(2-amino-4-isopropoxy-pyrido[3,2-d]pyrimidin-6-yl)-phenyl]-isobutyramide] | > 20000 | < 300 |
| Nc1nc(N2CCS(=O)(=O)CC2)c2nc(-c3ccc(C(=O)NC4CC4)cc3)ccc2n1 [Example 16, 4-[2-Amino-4-(1,1-dioxo-1λ^6-thiomorpholin-4-yl)-pyrido[3,2-d]pyrimidin-6-yl]-N-cyclopropyl-benzamide] | 10000 to 20000 | < 300 |
| CC(C)NC(=O)c1ccc(-c2ccc3nc(N)nc(OC(C)C)c3n2)cc1 [Example 69, 4-(2-Amino-4-isopropoxy-pyrido[3,2-d]pyrimidin-6-yl)-N-isopropyl-benzamide] | > 20000 | < 300 |
| CCCCNC(=O)c1ccc(-c2ccc3nc(N)nc(OC(C)C)c3n2)cc1 [Example 66, 4-(2-Amino-4-isopropoxy-pyrido[3,2-d]pyrimidin-6-yl)-N-n-butyl-benzamide] | > 20000 | 300 to 1000 |
| CCOc1nc(N)nc2ccc(-c3ccc(C(=O)NC4CCCC4)cc3)nc12 [Example 59, 4-(2-Amino-4-ethoxy-pyrido[3,2-d]pyrimidin-6-yl)-N-cyclopentyl-benzamide] | > 20000 | 300 to 1000 |
| CC(C)C(=O)Nc1ccc(-c2ccc3nc(N)nc(O[C@H]4CCOC4)c3n2)cc1 [Example 27, N-{4-[2-Amino-4-(tetrahydro-furan-3-yloxy)-pyrido[3,2-d]pyrimidin-6-yl]-phenyl}-isobutyramide] | > 20000 | < 300 |
| CCOc1nc(N)nc2ccc(-c3cccc(NS(=O)(=O)c4cn(C)cn4)c3)nc12 [Example 49, 1-Methyl-1H-imidazole-4-sulfonic acid [3-(2-amino-4-ethoxy-pyrido[3,2-d]pyrimidin-6-yl)-phenyl]-amide] | > 20000 | 300 to 1000 |
| CCOc1nc(N)nc2ccc(-c3ccc(Nc4nncs4)cc3)nc12 [Example 32, 4-Ethoxy-6-[4-([1,3,4]thiadiazol-2-ylamino)-phenyl]-pyrido[3,2-d]pyrimidin-2-ylamine] | > 20000 | 300 to 1000 |
| CCOc1nc(N)nc2ccc(-c3cccc(NS(=O)(=O)c4cnc(NC(C)=O)s4)c3)nc12 [Example 48, N-{5-[3-(2-Amino-4-ethoxy-pyrido[3,2-d]pyrimidin-6-yl)-phenylsulfamoyl]-thiazol-2-yl}-acetamide] | > 20000 | < 300 |
| Nc1nc(O[C@H]2CCOC2)c2nc(-c3ccc(C(=O)NCCN4CCOCC4)cc3)ccc2n1 [Example 84, 4-[2-Amino-4-(tetrahydro-furan-3-yloxy)-pyrido[3,2-d]pyrimidin-6-yl]-N-(2-morpholin-4-yl-ethyl)-benzamide] | > 20000 | < 300 |
| CC(C)Oc1nc(N)nc2ccc(-c3ccc(C(=O)NC(C)(C)C)cc3)nc12 [Example 67, 4-(2-Amino-4-isopropoxy-pyrido[3,2-d]pyrimidin-6-yl)-N-tert-butyl-benzamide] | > 20000 | 300 to 1000 |
| CC(C)Oc1nc(N)nc2ccc(-c3ccc(C(=O)NC4CC4)cc3)nc12 [Example 73, 4-(2-Amino-4-isopropoxy-pyrido[3,2-d]pyrimidin-6-yl)-N-cyclopropyl-benzamide] | > 20000 | < 300 |
| CC(C)CNC(=O)c1ccc(-c2ccc3nc(N)nc(OC(C)C)c3n2)cc1 [Example 64, 4-(2-Amino-4-isopropoxy-pyrido[3,2-d]pyrimidin-6-yl)-N-isobutyl-benzamide] | > 20000 | 300 to 1000 |
| Nc1nc(O[C@@H]2CCOC2)c2nc(-c3ccc(NC(=O)[C@H]4CCNC4)cc3)ccc2n1 [Example 24, Pyrrolidine-3-carboxylic acid {4-[2-amino-4-(tetrahydro-furan-3-yloxy)-pyrido[3,2-d]pyrimidin-6-yl]-phenyl}-amide] | > 20000 | > 1000 |
